Results as given in patent US7598206B2, “Fungicidal mixtures” (BASF Aktiengesellschaft, priority 2004, dated 2009).

What was measured:
Format in all cases: in vivo
Botrytis cinerea [1] = experiment: Use example 1: activity against gray mold on bell pepper leaves, 1 day protective application; conditions: efficacy in % of untreated control (Abbot), sprayed 1 day before inoculation, rated after 5 days, read-out: Observed activity (%)
Method: (§1) The active compounds were prepared jointly or separately as a stock solution with 25 mg of active compound which was made up to 10 ml using a mixture of acetone and/or DMSO and the emulsifier Uniperol® EL (wetting agent having emulsifying and dispersing action based on ethoxylated alkylphenols) in a volume ratio of solvent/emulsifier of 99 to 1. The mixture was then made up with water to 100 ml. This stock solution was diluted with the solvent/emulsifier/water mixture described to the concentration of active compounds stated below.
(§2) The active compounds epoxiconazole and pyraclostrobin were used as commercial formulations and diluted with water to the stated concentration.
(§3) The visually determined percentages of infected leaf areas were converted into efficacies in % of the untreated control:
(§4) The efficacy (E) is calculated as follows using Abbot's formula: E=(1−α/β)·100 • α corresponds to the fungicidal infection of the treated plants in % and • β corresponds to the fungicidal infection of the untreated (control) plants in % […]
(§5) The expected efficacies of mixtures of active compounds were determined using Colby's formula (Colby, S. R. “Calculating synergistic and antagonistic responses of herbicide combinations”, Weeds, 15, 1967, p. 20-22) and compared with the observed efficacies. […]

Alternaria solani = experiment: Use example 3: 5 day protective activity against early blight of tomato; conditions: sprayed 5 days before infection, rated after 5 days, read-out: Observed activity (%)
Method: as §1, §2, §3, §4, §5

Botrytis cinerea [2] = experiment: Use example 2: activity against gray mold on bell pepper leaves, 5 day protective application; conditions: sprayed 5 days before inoculation, read-out: Observed activity (%)
Method: as §1, §2, §3
The efficacy (E) is calculated as follows using Abbot's formula: E=(1−α/β)·100 • α corresponds to the fungicidal infection of the treated plants in % and • β corresponds to the fungicidal infection of the untreated (control) plants in %
An efficacy of 0 means that the infection level of the treated plants corresponds to that of the untreated control plants; an efficacy of 100 means that the treated plants were not infected.
The expected efficacies of mixtures of active compounds were determined using Colby's formula (Colby, S. R. “Calculating synergistic and antagonistic responses of herbicide combinations”, Weeds, 15, 1967, p. 20-22) and compared with the observed efficacies.
Colby's formula: E=x+y−x·y/100 • E expected efficacy, expressed in % of the untreated control, when using the mixture of the active compounds A and B at the concentrations a and b • x efficacy, expressed in % of the untreated control, when using the active compound A at the concentration a • y efficacy, expressed in % of the untreated control, when using the active compound B at the concentration b
Use example 2-activity against gray mold on bell pepper leaves caused by Botrytis cinerea, 5 day protective application
Bell pepper seedlings of the cultivar “Neusiedler Ideal Elite” were, after 2-3 leaves were well developed, sprayed to runoff point with an aqueous suspension having the active compound concentration given below. After 5 days, the treated plants were inoculated with a spore suspension of Botrytis cinerea which comprised 1.7×10^6 spores/ml in a 2% strength aqueous biomalt solution. The test plants were then placed in a dark climatized chamber at 22 to 24° C. and high atmospheric humidity. After 5 days, the extent of the fungal infection on the leaves could be determined visually in %.

Fc1ccc([C@]2(Cn3cncn3)O[C@H]2c2ccccc2Cl)cc1 (racemic) [epoxiconazole (A7), (2RS,3SR)-1-[3-(2-chlorophenyl)-2,3-epoxy-2-(4-fluorophenyl)propyl]-1H-1,2,4-triazole]
inhibition at 4 ppm (Botrytis cinerea [1]): 0%

CN1OC(c2ccc(Cl)cc2)CC1(C)c1cccnc1 (centres unmarked) [SYP-Z048 (I)]
inhibition at 1 ppm (Alternaria solani; 1 ppm): 0% | inhibition at 4 ppm (Botrytis cinerea [1]): 70% | inhibition at 16 ppm (Botrytis cinerea [2]; 16 ppm, rated after 5 days): 0%

O=C(Nc1ccccc1-c1ccc(Cl)cc1)c1cccnc1Cl [boscalid (C3), 2-chloro-N-(4′-chlorobiphenyl-2-yl)nicotinamide]
inhibition at 4 ppm (Alternaria solani; 4 ppm): 56% | inhibition at 4 ppm (Botrytis cinerea [2]; 4 ppm): 0%

COC(=O)N(OC)c1ccccc1COc1ccn(-c2ccc(Cl)cc2)n1 [pyraclostrobin (B9), methyl N-{2-[1-(4-chlorophenyl)-1H-pyrazol-3-yloxymethyl]phenyl}(N-methoxy)carbamate]
inhibition at 63 ppm (Botrytis cinerea [2]; 63 ppm, commercial formulation): 20%

Cc1ccc(N(SC(F)(Cl)Cl)S(=O)(=O)N(C)C)cc1 [tolylfluanid (F29), N-dichlorofluoromethylthio-N′,N′-dimethyl-N-p-tolylsulfamide]
inhibition at 250 ppm (Botrytis cinerea [2]; 250 ppm): 20%
